Measurements reported in patent US20250205344A1, “2,4-DIOXOTETRAHYDROPYRIMIDINYL DERATIVES AS DEGRONS IN PROTACS” (GLAXOSMITHKLINE INTELLECTUAL PROPERTY DEVELOPMENT LIMITED, priority 2022, published 2025).

Molecular target: T1, IRAK4 (Interleukin 1 Receptor Associated Kinase 4) (Homo sapiens, UniProt Q9NWZ3)
T1 construct: the IRAK4 gene was modified, using CRISPR/Cas9 editing, so the expressed IRAK4 protein included an 11 amino acid HiBiT tag; endogenous in cells; host or cells: clonal HeLa line, IRAK4 gene edited by CRISPR/Cas9 (heterozygous)
T1 sequence (Q9NWZ3 1-460): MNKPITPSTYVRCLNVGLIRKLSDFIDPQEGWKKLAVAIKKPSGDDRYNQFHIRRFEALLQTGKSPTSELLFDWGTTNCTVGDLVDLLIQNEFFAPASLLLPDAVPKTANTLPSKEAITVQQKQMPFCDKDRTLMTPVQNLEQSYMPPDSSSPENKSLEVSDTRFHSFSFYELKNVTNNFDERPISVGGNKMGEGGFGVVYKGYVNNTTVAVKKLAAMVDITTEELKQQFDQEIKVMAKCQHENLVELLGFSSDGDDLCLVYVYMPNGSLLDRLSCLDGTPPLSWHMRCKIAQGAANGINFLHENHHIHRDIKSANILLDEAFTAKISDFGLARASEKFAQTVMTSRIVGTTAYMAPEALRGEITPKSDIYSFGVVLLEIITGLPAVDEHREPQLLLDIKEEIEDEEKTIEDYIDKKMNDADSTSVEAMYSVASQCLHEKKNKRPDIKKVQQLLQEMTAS
Assay: IRAK4 Degradation Assay (Nano-Glo HiBiT)
Type: cell-based
Conditions: HiBiT-tagged IRAK4 in HeLa cells, 18 h
Excerpt: Degradation of IRAK4 (Interleukin 1 Receptor Associated Kinase 4) protein in Hela cells treated with PROTACs was quantified using the Nano-Glo® HiBiT Lytic Detection System (Promega) in 384 well assay plate format. A clonal HeLa cell line was first established in which the IRAK4 gene was modified, using CRISPR/Cas9 editing, so the expressed IRAK4 protein included an 11 amino acid HiBiT tag at it's amino-terminus. The cell lines were heterozygotic for the HiBiT modification. Cells were cryopreserved in aliquots in 90% foetal bovine serum (FBS), 10% DMSO and stored at −150° C. 10 mM DMSO stock solutions of PROTACs were prepared and diluted across an 11 concentration, 3 fold increment range, and 25 nL dispensed into a white opaque bottomed 384 well assay plate (Thermofisher) using an acoustic ECHO dispenser (Labcyte). […] The intensity of luminescence was measured using a PHERAstar microplate reader (BMG Labtech) and the % IRAK4 protein remaining in each well calculated by normalising the raw luminescence value to the above control wells. Parameters corresponding to the potency and efficacy estimates of the PROTACs were obtained from these normalised luminescence values using software (IDBS ActivityBase). […]

With `CC(C)n1ccc2c(N3CCC(=O)NC3=O)cc(C(=O)NCCOCCOCCN(C)C(=O)c3ccc(-n4cc(NC(=O)c5coc(-c6ccnc(NCC7CC7)c6)n5)c(C(F)F)n4)cc3)cc21` [Example I1, 2-(2-((Cyclopropylmethyl)amino)pyridin-4-yl)-N-(3-(difluoromethyl)-1-(4-((2-(2-(2-(4-(2,4-dioxotetrahydropyrimidin-1(2H)-yl)-1-isopropyl-1H-indole-6-carboxamido)ethoxy)ethoxy)ethyl)(methyl)carbamoyl)phenyl)-1H-pyrazol-4-yl)oxazole-4-carboxamide] the mean asymptote max was 96% and the “mean relative pDC50” value was 8.1.
